≈ marks a conversion by molar mass, not a printed value. Entries after “also recorded” stand apart in the source; their conditions may differ. Where two headings read alike, the source gives them in different places.
Key:
Assay type in all cases: physicochemical
[1] = Solubility determination by solvent addition (visual assessment); conditions: thermodynamic from solid
Experimental: Aliquots of various solvents were added to measured amounts of the anhydrous crystalline form of the compound of formula (I) at various temperatures with sonication or stirring. Solubilities were calculated based on the total solvent used to give a solution; actual solubilities may be greater because of the volume of solvent portions utilized or a slow rate of dissolution. […] If dissolution occurred at the first aliquot the value was reported as “>”.

[2] = Dynamic vapor sorption (DVS), water sorption isotherm
Experimental: Vapor sorption data were collected on a Surface Measurement System DVS Intrinsic instrument. Samples were not dried prior to analysis. Sorption and desorption data were collected over a range from 5% to 95% RH at 10% RH increments under a nitrogen purge. The equilibrium criterion used for analysis was less than 0.0100% weight change in 5 minutes with a maximum equilibration time of 3 hours.

[3] = as above; remark: listed apart in the source

Question: Which solubility ([1]; aqueous with cosolvent or surfactant or cyclodextrin, solvent Water/EtOH (20/80 v/v), read-out: Solubility) does the source give for `C[C@H]1CCCN(Cc2cc(C(F)(F)F)c3cn(-c4cccc([C@H](c5nncn5C)C5CCC5)c4)c(=O)n3c2)C1` [2-(3-((R)-cyclobutyl(4-methyl-4H-1,2,4-triazol-3-yl)methyl)phenyl)-6-(((S)-3-methylpiperidin-1-yl)methyl)-8-(trifluoromethyl)imidazo[1,5-a]pyridin-3(2H)-one] here?
Answer: Its solubility is > 29 mg/mL.

Question: And the solubility ([1]; aqueous with cosolvent or surfactant or cyclodextrin, solvent Water/EtOH (40/60 v/v), read-out: Solubility)?
Answer: Its solubility is > 36 mg/mL.

Question: And the solubility ([1]; aqueous with cosolvent or surfactant or cyclodextrin, solvent Water/EtOH (50/50 v/v), read-out: Solubility)?
Answer: Its solubility is 9 mg/mL (≈ 16.7 mM).

Question: And the solubility ([1]; aqueous with cosolvent or surfactant or cyclodextrin, solvent Water/EtOH (60/40 v/v), read-out: Solubility)?
Answer: The solubility was < 4 mg/mL.

Question: What about the solubility ([1]; aqueous with cosolvent or surfactant or cyclodextrin, solvent Water/IPA (20/80 v/v), read-out: Solubility) of the same compound?
Answer: Its solubility is > 30 mg/mL.

Question: What about the solubility ([1]; aqueous with cosolvent or surfactant or cyclodextrin, solvent Water/IPA (40/60 v/v), read-out: Solubility) of the same compound?
Answer: Its solubility is > 37 mg/mL.

Question: What about the solubility ([1]; aqueous with cosolvent or surfactant or cyclodextrin, solvent Water/IPA (60/40 v/v), read-out: Solubility) of the same compound?
Answer: The solubility was 9 mg/mL (≈ 16.7 mM).

Question: And the solubility ([1]; aqueous with cosolvent or surfactant or cyclodextrin, solvent Water/MeOH (20/80 v/v), read-out: Solubility)?
Answer: Its solubility is > 29 mg/mL.

Question: What about the solubility ([1]; aqueous with cosolvent or surfactant or cyclodextrin, solvent Water/MeOH (40/60 v/v), read-out: Solubility) of the same compound?
Answer: Its solubility is 7 mg/mL (≈ 13 mM).

Question: What about the solubility ([1]; aqueous with cosolvent or surfactant or cyclodextrin, solvent Water/MeOH (60/40 v/v), read-out: Solubility) of the same compound?
Answer: The solubility was < 3 mg/mL.

Question: And the solubility ([1]; organic solvent or mixture, solvent ACN, read-out: Solubility)?
Answer: Its solubility is 85 mg/mL (≈ 158 mM).

Question: And the solubility ([1]; organic solvent or mixture, solvent Acetone, read-out: Solubility)?
Answer: The solubility was 31 mg/mL (≈ 57.6 mM).

Question: And the solubility ([1]; organic solvent or mixture, solvent DCM, read-out: Solubility)?
Answer: The solubility was > 100 mg/mL.

Question: What about the solubility ([1]; organic solvent or mixture, solvent DIPE, read-out: Solubility) of the same compound?
Answer: The solubility was < 2 mg/mL.

Question: What about the solubility ([1]; organic solvent or mixture, solvent EtOAc, read-out: Solubility) of the same compound?
Answer: The solubility was 38 mg/mL (≈ 70.6 mM).

Question: And the solubility ([1]; organic solvent or mixture, solvent EtOH, read-out: Solubility)?
Answer: The solubility was 99 mg/mL (≈ 184 mM).

Question: And the solubility ([1]; organic solvent or mixture, solvent Heptane, read-out: Solubility)?
Answer: The solubility was < 1 mg/mL.

Question: What about the solubility ([1]; organic solvent or mixture, solvent IPA, read-out: Solubility) of the same compound?
Answer: The solubility was 79 mg/mL (≈ 147 mM).

Question: What about the solubility ([1]; organic solvent or mixture, solvent MTBE, read-out: Solubility) of the same compound?
Answer: The solubility was 4 mg/mL (≈ 7.43 mM).

Question: What about the solubility ([1]; organic solvent or mixture, solvent MeOH, read-out: Solubility) of the same compound?
Answer: Its solubility is 91 mg/mL (≈ 169 mM).

Question: And the solubility ([1]; organic solvent or mixture, solvent THF, read-out: Solubility)?
Answer: The solubility was 95 mg/mL (≈ 176 mM).

Question: What about the solubility ([1]; organic solvent or mixture, solvent Toluene, read-out: Solubility) of the same compound?
Answer: The solubility was 99 mg/mL (≈ 184 mM).

Question: And the solubility ([1]; solvent Water, read-out: Solubility)?
Answer: Its solubility is < 1 mg/mL.

Question: What about the “XRPD analysis on the post-DVS sample (solid form)” value ([2]; after DVS) of the same compound?
Answer: Its value is “amorphous”.

Question: And the hysteresis on desorption ([2]; desorption step)?
Answer: The hysteresis on desorption was “very minor hysteresis; also recorded: Significant hysteresis”.

Question: And the weight gain ([2]; from 5% to 74% RH)?
Answer: Its weight gain is 1.2 % wt.

Question: What about the “water taken up during sorption” value ([2]; from 5 to 95% RH) of the same compound?
Answer: Its value is 0.1 moles of water per mole of API.

Question: And the “weight gain during the sorption step” value ([2]; from 5 to 95% relative humidity (RH))?
Answer: Its value is 0.4%.

Question: What about the “appearance of sample after DVS” value ([2]; upon desorption) of the same compound?
Answer: Its value is “signs of partial deliquescence”.

Question: What about the hygroscopicity classification ([2]; water sorption isotherm, Ph. Eur. 10.0 classes) of the same compound?
Answer: Its hygroscopicity classification is “slightly hygroscopic”.

Question: And the total water gained ([3]; 5% to 96% RH)?
Answer: The total water gained was 7.6 moles of water.

Question: And the total weight gained ([3]; 5% to 96% RH)?
Answer: The total weight gained was 15.8%.

Question: And the weight gain ([3]; from 75% to 96% RH)?
Answer: The weight gain was 14.6 % wt.

Question: Which solubility ([1]; water, 25° C., by solvent addition, read-out: aqueous solubility) does the source give for `C[C@H]1CCCN(Cc2cc(C(F)(F)F)c3cn(-c4cccc([C@H](c5nncn5C)C5CCC5)c4)c(=O)n3c2)C1` here?
Answer: Its solubility is > 111 mg/mL.
